In ChEMBL document CHEMBL5303573, “Mapping human microbiome drug metabolism by gut bacteria and their genes” (Nature, 2019):

What was measured:
[1] = The drug is tested on Bacteroides fragilis strain: T(B)9 for biotransformation. The drug concentrations were measured before and after a 12-h incubation by liquid-chromatography-coupled mass spectrometry (LC–MS); conditions: 2 µM
[2] = molecular target: T1, Nitroreductase-like protein (Bacteroides thetaiotaomicron, UniProt Q8AB93); assay: (§1) The drug is tested on Bacteroides thetaiotaomicron strain: VPI-5482 for biotransformation. The drug concentrations were measured before and after a 12-h incubation by liquid-chromatography-coupled mass spectrometry (LC–MS); assay type: ADME; design: dose 2 uM; conditions: 2 µM
T1 sequence (Q8AB93 whole entry): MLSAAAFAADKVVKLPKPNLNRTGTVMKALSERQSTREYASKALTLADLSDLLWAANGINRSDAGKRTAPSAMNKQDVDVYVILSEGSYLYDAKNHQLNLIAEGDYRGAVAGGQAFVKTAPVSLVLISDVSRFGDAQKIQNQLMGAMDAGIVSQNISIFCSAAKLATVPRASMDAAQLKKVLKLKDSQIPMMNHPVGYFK

General stress protein = General stress protein (Bacteroides thetaiotaomicron, UniProt Q8A7U5); assay: as §1; assay type: ADME; design: dose 2 uM; conditions: 2 µM
Chain of General stress protein (Q8A7U5 1-138, change not shown): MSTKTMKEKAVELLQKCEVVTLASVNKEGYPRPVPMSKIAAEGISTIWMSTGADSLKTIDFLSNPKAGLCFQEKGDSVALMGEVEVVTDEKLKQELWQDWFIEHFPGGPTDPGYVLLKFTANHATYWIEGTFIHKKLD

Xylanase = molecular target: T2, Xylanase (Bacteroides thetaiotaomicron, UniProt Q8A8H5); assay: as §1; assay type: ADME; design: dose 2 uM; conditions: 2 µM
T2 sequence (Q8A8H5 whole entry): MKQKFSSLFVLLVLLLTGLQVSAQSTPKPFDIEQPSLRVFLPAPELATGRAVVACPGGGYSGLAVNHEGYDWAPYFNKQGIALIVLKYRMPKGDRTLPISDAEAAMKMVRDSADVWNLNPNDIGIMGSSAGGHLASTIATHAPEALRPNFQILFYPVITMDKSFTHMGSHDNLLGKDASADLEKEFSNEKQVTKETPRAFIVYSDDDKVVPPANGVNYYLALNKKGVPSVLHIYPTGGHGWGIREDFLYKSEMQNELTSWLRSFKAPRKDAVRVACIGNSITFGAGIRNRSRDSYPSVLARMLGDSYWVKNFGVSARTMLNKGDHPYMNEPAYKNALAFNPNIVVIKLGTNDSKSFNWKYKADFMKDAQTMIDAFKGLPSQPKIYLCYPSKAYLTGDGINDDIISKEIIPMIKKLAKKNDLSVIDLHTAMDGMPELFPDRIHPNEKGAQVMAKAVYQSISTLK

Nitroreductase = molecular target: T3, Nitroreductase (Bacteroides thetaiotaomicron, UniProt Q8A911); assay: as §1; assay type: ADME; design: dose 2 uM; conditions: 2 µM
T3 sequence (Q8A911 whole entry): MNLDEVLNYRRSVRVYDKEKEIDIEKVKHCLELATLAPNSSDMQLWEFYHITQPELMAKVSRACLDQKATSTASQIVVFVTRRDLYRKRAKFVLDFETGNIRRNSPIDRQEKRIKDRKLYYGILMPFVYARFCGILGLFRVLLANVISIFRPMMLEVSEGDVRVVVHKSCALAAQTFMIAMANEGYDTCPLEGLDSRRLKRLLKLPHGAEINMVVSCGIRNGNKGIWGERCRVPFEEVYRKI

[3] = molecular target: T4, Lipolytic enzyme, G-D-S-L family (Bacteroides thetaiotaomicron, UniProt Q8A0E6); assay: as §1; assay type: ADME; design: dose 2 uM; conditions: 2 µM
T4 sequence (Q8A0E6 whole entry): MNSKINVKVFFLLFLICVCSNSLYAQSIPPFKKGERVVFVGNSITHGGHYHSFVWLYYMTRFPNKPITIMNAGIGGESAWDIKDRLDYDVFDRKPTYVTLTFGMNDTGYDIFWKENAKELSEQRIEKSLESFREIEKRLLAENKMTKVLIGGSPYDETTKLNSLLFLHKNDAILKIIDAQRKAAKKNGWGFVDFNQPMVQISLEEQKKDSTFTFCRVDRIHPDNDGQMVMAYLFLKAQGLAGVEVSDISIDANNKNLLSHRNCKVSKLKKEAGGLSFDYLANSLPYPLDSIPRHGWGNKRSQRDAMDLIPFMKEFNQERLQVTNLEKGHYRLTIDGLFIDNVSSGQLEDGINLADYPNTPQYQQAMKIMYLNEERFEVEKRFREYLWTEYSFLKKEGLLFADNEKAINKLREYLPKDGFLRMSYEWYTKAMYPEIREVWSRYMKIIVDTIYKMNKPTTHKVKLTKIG

Endoglucanase E (EGE) = molecular target: T5, Endoglucanase E (EGE) (Bacteroides thetaiotaomicron, UniProt Q8AAL9); assay: as §1; assay type: ADME; design: dose 2 uM; conditions: 2 µM
T5 sequence (Q8AAL9 whole entry): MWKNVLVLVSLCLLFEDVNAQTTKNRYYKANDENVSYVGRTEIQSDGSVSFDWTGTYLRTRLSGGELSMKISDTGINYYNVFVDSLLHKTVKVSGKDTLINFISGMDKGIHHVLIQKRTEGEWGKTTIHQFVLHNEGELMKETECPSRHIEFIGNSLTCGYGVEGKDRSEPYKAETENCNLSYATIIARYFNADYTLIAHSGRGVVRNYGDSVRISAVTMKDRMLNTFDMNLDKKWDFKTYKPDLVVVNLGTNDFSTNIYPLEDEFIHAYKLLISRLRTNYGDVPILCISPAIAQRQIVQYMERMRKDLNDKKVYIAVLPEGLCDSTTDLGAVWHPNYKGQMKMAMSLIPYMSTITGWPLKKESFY

Regulatory protein = molecular target: T6, Regulatory protein (Bacteroides thetaiotaomicron, UniProt Q8A576); assay: as §1; assay type: ADME; design: dose 2 uM; conditions: 2 µM
T6 sequence (Q8A576 whole entry): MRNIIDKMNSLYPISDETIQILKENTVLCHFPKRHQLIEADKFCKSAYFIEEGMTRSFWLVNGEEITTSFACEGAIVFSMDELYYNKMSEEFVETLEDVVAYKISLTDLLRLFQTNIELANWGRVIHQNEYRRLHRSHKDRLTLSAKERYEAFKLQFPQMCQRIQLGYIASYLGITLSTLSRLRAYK

Acyltransferase = molecular target: T7, Acyltransferase (Bacteroides thetaiotaomicron, UniProt Q8A575); assay: as §1; assay type: ADME; design: dose 2 uM; conditions: 2 µM
T7 sequence (Q8A575 whole entry): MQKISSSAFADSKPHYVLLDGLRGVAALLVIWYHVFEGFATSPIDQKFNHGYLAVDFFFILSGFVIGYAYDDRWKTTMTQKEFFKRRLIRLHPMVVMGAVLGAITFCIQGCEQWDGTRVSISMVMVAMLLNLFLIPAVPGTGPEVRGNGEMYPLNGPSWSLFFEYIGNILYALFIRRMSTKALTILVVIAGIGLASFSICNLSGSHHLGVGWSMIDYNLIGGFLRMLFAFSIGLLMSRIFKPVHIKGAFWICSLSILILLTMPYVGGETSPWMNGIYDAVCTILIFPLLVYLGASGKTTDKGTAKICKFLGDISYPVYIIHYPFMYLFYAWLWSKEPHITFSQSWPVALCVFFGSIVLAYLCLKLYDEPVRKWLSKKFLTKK

[4] = molecular target: T8, 3-oxo-5-alpha-steroid 4-dehydrogenase (Bacteroides thetaiotaomicron, UniProt Q8A618); assay: as §1; assay type: ADME; design: dose 2 uM; conditions: 2 µM
T8 sequence (Q8A618 whole entry): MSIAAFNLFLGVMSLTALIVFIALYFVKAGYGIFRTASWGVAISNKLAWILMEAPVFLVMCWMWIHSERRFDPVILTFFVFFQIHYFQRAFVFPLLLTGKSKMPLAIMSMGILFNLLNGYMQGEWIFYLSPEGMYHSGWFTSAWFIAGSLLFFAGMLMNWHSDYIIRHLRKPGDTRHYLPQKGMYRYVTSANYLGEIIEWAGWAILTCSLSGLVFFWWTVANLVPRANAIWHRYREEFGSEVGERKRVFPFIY

[5] = The drug is tested on Eubacterium biforme strain: DSM3989 for biotransformation. The drug concentrations were measured before and after a 12-h incubation by liquid-chromatography-coupled mass spectrometry (LC–MS); conditions: holdemanella biformis, 2 µM

| SMILES | Bacterial Biotransformation [1] | Bacterial Biotransformation [2] | Bacterial Biotransformation (General stress protein) | Bacterial Biotransformation (Xylanase) | Bacterial Biotransformation (Nitroreductase) | Bacterial Biotransformation [3] | Bacterial Biotransformation (Endoglucanase E (EGE)) | Bacterial Biotransformation (Regulatory protein) | Bacterial Biotransformation (Acyltransferase) | Bacterial Biotransformation [4] | Bacterial Biotransformation [5] |
| --- | --- | --- | --- | --- | --- | --- | --- | --- | --- | --- | --- |
| CN1[C@@H]2CC[C@H]1C[C@@H](OC(=O)C(CO)c1ccccc1)C2 (some centres not stated) [ATROPINE] | Compound NOT metabolized | – | – | – | – | – | – | – | – | – | – |
| C#C[C@]1(OC(C)=O)CC[C@H]2[C@@H]3CCC4=CC(=O)CC[C@@H]4[C@H]3CC[C@@]21C [NORETHINDRONE ACETATE] | – | Compound NOT metabolized | Compound NOT metabolized | Compound NOT metabolized | Compound NOT metabolized | Compound NOT metabolized | Compound NOT metabolized | Compound NOT metabolized | Compound NOT metabolized | Compound metabolized | – |
| C#C[C@]1(OC(C)=O)CC[C@H]2[C@@H]3CCC4=C/C(=N/O)CC[C@@H]4[C@H]3CC[C@@]21CC [NORGESTIMATE] | Compound NOT metabolized | – | – | – | – | – | – | – | – | – | Compound metabolized |
| CC(=O)OCC(=O)[C@@]1(OC(C)=O)[C@@H](C)C[C@H]2[C@@H]3C[C@H](F)C4=CC(=O)C=C[C@]4(C)[C@@]3(F)[C@@H](O)C[C@@]21C [DIFLORASONE DIACETATE] | – | Compound NOT metabolized | Compound NOT metabolized | Compound NOT metabolized | Compound NOT metabolized | Compound NOT metabolized | Compound NOT metabolized | Compound NOT metabolized | Compound NOT metabolized | Compound NOT metabolized | – |
| Cc1ccc(NC(=O)c2ccc(CN3CCN(C)CC3)cc2)cc1Nc1nccc(-c2cccnc2)n1 [IMATINIB] | Compound NOT metabolized | – | – | – | – | – | – | – | – | – | Compound NOT metabolized |
| C#C[C@]1(O)CC[C@H]2[C@@H]3CCC4=CC(=O)CC[C@@H]4[C@H]3CC[C@@]21CC [LEVONORGESTREL] | – | Compound NOT metabolized | Compound NOT metabolized | Compound NOT metabolized | Compound NOT metabolized | Compound NOT metabolized | Compound NOT metabolized | Compound NOT metabolized | Compound NOT metabolized | Compound metabolized | – |
| CC(=O)OCC(CCn1cnc2cnc(N)nc21)COC(C)=O [FAMCICLOVIR] | – | Compound NOT metabolized | Compound NOT metabolized | Compound NOT metabolized | Compound NOT metabolized | Compound NOT metabolized | Compound NOT metabolized | Compound NOT metabolized | Compound NOT metabolized | Compound NOT metabolized | – |
| CNCC[C@H](Oc1cccc2ccccc12)c1cccs1 [DULOXETINE] | Compound metabolized | – | – | – | – | – | – | – | – | – | Compound NOT metabolized |

Now from value to molecule:

| Bacterial Biotransformation [1] | Bacterial Biotransformation [2] | Bacterial Biotransformation (General stress protein) | Bacterial Biotransformation (Xylanase) | Bacterial Biotransformation (Nitroreductase) | Bacterial Biotransformation [3] | Bacterial Biotransformation (Endoglucanase E (EGE)) | Bacterial Biotransformation (Regulatory protein) | Bacterial Biotransformation (Acyltransferase) | Bacterial Biotransformation [4] | Bacterial Biotransformation [5] | SMILES |
| --- | --- | --- | --- | --- | --- | --- | --- | --- | --- | --- | --- |
| – | – | – | – | – | – | – | – | – | – | Compound NOT metabolized | O=C(CCCN1CCC(O)(c2ccc(Cl)cc2)CC1)c1ccc(F)cc1 [HALOPERIDOL] |
| – | Compound NOT metabolized | Compound NOT metabolized | Compound NOT metabolized | Compound NOT metabolized | Compound NOT metabolized | Compound NOT metabolized | Compound NOT metabolized | Compound NOT metabolized | Compound NOT metabolized | – | COc1ccc([C@@H]2Sc3ccccc3N(CCN(C)C)C(=O)[C@@H]2OC(C)=O)cc1 [DILTIAZEM] |
| Compound NOT metabolized | – | – | – | – | – | – | – | – | – | Compound NOT metabolized | CC(C)(C(=O)O)c1ccc(C(O)CCCN2CCC(C(O)(c3ccccc3)c3ccccc3)CC2)cc1 (configuration not stated) [FEXOFENADINE] |
| – | Compound NOT metabolized | Compound NOT metabolized | Compound NOT metabolized | Compound NOT metabolized | Compound NOT metabolized | Compound NOT metabolized | Compound NOT metabolized | Compound metabolized | Compound NOT metabolized | – | N#Cc1ccc2c(c1)N(CCCN1CCC(O)CC1)c1ccccc1S2 [PERICIAZINE] |
| Compound NOT metabolized | – | – | – | – | – | – | – | – | – | – | COc1ccc2cc([C@H](C)C(=O)O)ccc2c1 [NAPROXEN] |
| Compound metabolized | – | – | – | – | – | – | – | – | – | Compound NOT metabolized | COC(=O)Nc1nc2ccc(C(=O)c3ccccc3)cc2[nH]1 [MEBENDAZOLE] |
